Reference: the supplement of paper PMC10307832

Assays:
Test in all cases: relative viability (nuclei count vs DMSO), 5 days (fraction); higher = more cells survive
COR-L23 = test system: COR-L23
Method in brief: (§1)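 After 5 days of treatment, lung cancer cells in 1536-well plates were fixed and stained in a single step (final 0.05% Triton X-100, 1% formaldehyde, 1 ug/ml Hoechst) and their nuclei counted on 4× images. Treatment had been applied by pin tool the day after seeding as one drug alone or as a fixed anchor-drug dose with five library-drug doses (not always all listed) in √10 steps. Relative viability is the nuclei count of treated wells divided by that of vehicle wells, and values are medians of duplicate plates.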

A-427 = test system: A-427
Method in brief: as §1

SW 1573 = test system: SW 1573
Method in brief: as §1

PC-14 = test system: PC-14
Method in brief: as §1

NCI-H1793 = test system: NCI-H1793
Method in brief: as §1

HCC-44 = test system: HCC-44
Method in brief: as §1

NCI-H1563 = test system: NCI-H1563
Method in brief: as §1

NCI-H2347 = test system: NCI-H2347
Method in brief: as §1

H3255 = test system: H3255
Method in brief: as §1

PC-3 [JPC-3] = test system: PC-3 [JPC-3]
Method in brief: as §1

201T = test system: 201T
Method in brief: as §1

NCI-H727 = test system: NCI-H727
Method in brief: as §1

NCI-H650 = test system: NCI-H650
Method in brief: as §1

NCI-H838 = test system: NCI-H838
Method in brief: as §1

LK-2 = test system: LK-2
Method in brief: as §1

NCI-H1650 = test system: NCI-H1650
Method in brief: as §1

LCLC-103H = test system: LCLC-103H
Method in brief: as §1

LU99A = test system: LU99A
Method in brief: as §1

LCLC-97TM1 = test system: LCLC-97TM1
Method in brief: as §1

NCI-H23 = test system: NCI-H23
Method in brief: as §1

NCI-H1944 = test system: NCI-H1944
Method in brief: as §1

NCI-H460 = test system: NCI-H460
Method in brief: as §1

SW 900 = test system: SW 900
Method in brief: as §1

## C=C1C(=O)O[C@@H](CCCCCCCC)[C@@H]1C(=O)O [C-75] + N=C(N)NC(=N)NCCc1ccccc1 [Phenformin] (partner 250 µM)
COR-L23; first compound 0.08 µM
  relative viability: 0.44
COR-L23; first compound 0.253 µM
  relative viability: 0.386
COR-L23; first compound 0.8 µM
  relative viability: 0.41
COR-L23; first compound 2.53 µM
  relative viability: 0.42
COR-L23; first compound 8 µM
  relative viability: 0.421
A-427; first compound 0.08 µM
  relative viability: 0.361
A-427; first compound 0.253 µM
  relative viability: 0.342
A-427; first compound 0.8 µM
  relative viability: 0.33
A-427; first compound 2.53 µM
  relative viability: 0.284
A-427; first compound 8 µM
  relative viability: 0.303
SW 1573; first compound 0.08 µM
  relative viability: 0.462
SW 1573; first compound 0.253 µM
  relative viability: 0.351
SW 1573; first compound 0.8 µM
  relative viability: 0.376
SW 1573; first compound 2.53 µM
  relative viability: 0.381
SW 1573; first compound 8 µM
  relative viability: 0.244
PC-14; first compound 0.08 µM
  relative viability: 0.469
PC-14; first compound 0.253 µM
  relative viability: 0.516
PC-14; first compound 0.8 µM
  relative viability: 0.479
PC-14; first compound 2.53 µM
  relative viability: 0.549
PC-14; first compound 8 µM
  relative viability: 0.526
NCI-H1793; first compound 0.08 µM
  relative viability: 0.365
NCI-H1793; first compound 0.253 µM
  relative viability: 0.362
NCI-H1793; first compound 0.8 µM
  relative viability: 0.287
NCI-H1793; first compound 2.53 µM
  relative viability: 0.29
NCI-H1793; first compound 8 µM
  relative viability: 0.486
HCC-44; first compound 0.08 µM
  relative viability: 0.294
HCC-44; first compound 0.253 µM
  relative viability: 0.185
HCC-44; first compound 0.8 µM
  relative viability: 0.176
HCC-44; first compound 2.53 µM
  relative viability: 0.157
HCC-44; first compound 8 µM
  relative viability: 0.142
NCI-H1563; first compound 0.08 µM
  relative viability: 0.656
NCI-H1563; first compound 0.253 µM
  relative viability: 0.64
NCI-H1563; first compound 0.8 µM
  relative viability: 0.655
NCI-H1563; first compound 2.53 µM
  relative viability: 0.63
NCI-H1563; first compound 8 µM
  relative viability: 0.691
NCI-H2347; first compound 0.08 µM
  relative viability: 0.506
NCI-H2347; first compound 0.253 µM
  relative viability: 0.599
NCI-H2347; first compound 0.8 µM
  relative viability: 0.401
NCI-H2347; first compound 8 µM
  relative viability: 0.379
H3255; first compound 0.08 µM
  relative viability: 0.345
H3255; first compound 0.253 µM
  relative viability: 0.352
H3255; first compound 0.8 µM
  relative viability: 0.392
H3255; first compound 2.53 µM
  relative viability: 0.337
H3255; first compound 8 µM
  relative viability: 0.331
PC-3 [JPC-3]; first compound 0.08 µM
  relative viability: 0.457
PC-3 [JPC-3]; first compound 0.253 µM
  relative viability: 0.468
PC-3 [JPC-3]; first compound 0.8 µM
  relative viability: 0.47
PC-3 [JPC-3]; first compound 2.53 µM
  relative viability: 0.48
PC-3 [JPC-3]; first compound 8 µM
  relative viability: 0.503
201T; first compound 0.08 µM
  relative viability: 0.42
201T; first compound 0.253 µM
  relative viability: 0.484
201T; first compound 0.8 µM
  relative viability: 0.425
201T; first compound 2.53 µM
  relative viability: 0.43
201T; first compound 8 µM
  relative viability: 0.459
NCI-H727; first compound 0.08 µM
  relative viability: 0.62
NCI-H727; first compound 0.253 µM
  relative viability: 0.879
NCI-H727; first compound 0.8 µM
  relative viability: 0.537
NCI-H727; first compound 8 µM
  relative viability: 0.65
NCI-H650; first compound 0.08 µM
  relative viability: 0.474
NCI-H650; first compound 0.253 µM
  relative viability: 0.409
NCI-H650; first compound 0.8 µM
  relative viability: 0.371
NCI-H650; first compound 2.53 µM
  relative viability: 0.4
NCI-H650; first compound 8 µM
  relative viability: 0.41
NCI-H838; first compound 0.08 µM
  relative viability: 0.572
NCI-H838; first compound 0.8 µM
  relative viability: 0.515
NCI-H838; first compound 2.53 µM
  relative viability: 0.453
NCI-H838; first compound 8 µM
  relative viability: 0.49
LK-2; first compound 0.08 µM
  relative viability: 0.519
LK-2; first compound 0.253 µM
  relative viability: 0.537
LK-2; first compound 0.8 µM
  relative viability: 0.484
LK-2; first compound 2.53 µM
  relative viability: 0.226
LK-2; first compound 8 µM
  relative viability: 0.273
NCI-H1650; first compound 0.08 µM
  relative viability: 0.47
NCI-H1650; first compound 0.253 µM
  relative viability: 0.502
NCI-H1650; first compound 2.53 µM
  relative viability: 0.448
NCI-H1650; first compound 8 µM
  relative viability: 0.491
LCLC-103H; first compound 0.08 µM
  relative viability: 0.325
LCLC-103H; first compound 0.253 µM
  relative viability: 0.35
LCLC-103H; first compound 0.8 µM
  relative viability: 0.311
LCLC-103H; first compound 2.53 µM
  relative viability: 0.253
LCLC-103H; first compound 8 µM
  relative viability: 0.389
LU99A; first compound 0.08 µM
  relative viability: 0.848
LU99A; first compound 0.253 µM
  relative viability: 0.863
LU99A; first compound 0.8 µM
  relative viability: 0.816
LU99A; first compound 2.53 µM
  relative viability: 0.749
LU99A; first compound 8 µM
  relative viability: 0.641
LCLC-97TM1; first compound 0.08 µM
  relative viability: 0.421
LCLC-97TM1; first compound 0.253 µM
  relative viability: 0.487
LCLC-97TM1; first compound 0.8 µM
  relative viability: 0.355
LCLC-97TM1; first compound 2.53 µM
  relative viability: 0.372
LCLC-97TM1; first compound 8 µM
  relative viability: 0.431
NCI-H23; first compound 0.08 µM
  relative viability: 0.775
NCI-H23; first compound 0.253 µM
  relative viability: 0.758
NCI-H23; first compound 0.8 µM
  relative viability: 0.773
NCI-H23; first compound 2.53 µM
  relative viability: 0.582
NCI-H23; first compound 8 µM
  relative viability: 0.643
NCI-H1944; first compound 0.08 µM
  relative viability: 0.21
NCI-H1944; first compound 0.253 µM
  relative viability: 0.163
NCI-H1944; first compound 0.8 µM
  relative viability: 0.179
NCI-H1944; first compound 8 µM
  relative viability: 0.187
NCI-H460; first compound 0.08 µM
  relative viability: 0.511
NCI-H460; first compound 0.253 µM
  relative viability: 0.534
NCI-H460; first compound 0.8 µM
  relative viability: 0.501
NCI-H460; first compound 8 µM
  relative viability: 0.516
SW 900; first compound 0.08 µM
  relative viability: 0.642
SW 900; first compound 0.253 µM
  relative viability: 0.58
SW 900; first compound 0.8 µM
  relative viability: 0.513
SW 900; first compound 2.53 µM
  relative viability: 0.535
SW 900; first compound 8 µM
  relative viability: 0.495
